This passage reports GI50 results from US20240132521A1, “COMPOUNDS AND METHODS FOR MODULATING HER2” (Iambic Therapeutics, Inc., priority 2022, published 2024).

Counter-ions that a name gives are not always drawn. Like-named read-outs stand apart in the source and are kept apart here.

Common to all, as to assay type: cell-based
For one assay, the target named is BaF3_HER2WT cells (Homo sapiens, UniProt P04626). The experiment in a line: Cell growth inhibition assay (CellTiterGlo), BaF3_HER2WT.
In a further assay the target is BaF3_HER2YVMA cells (Homo sapiens, UniProt P04626, DUP772-775, cells depend on it). As to the kind of experiment: Cell growth inhibition assay (CellTiterGlo), BaF3_HER2YVMA.
The next assay deals with BaF3_EGFRWT cells (Homo sapiens, UniProt P00533). The experiment in a line: Cell growth inhibition assay (CellTiterGlo), BaF3_EGFRWT.
[1] abbreviates: 3-day treatment, CellTiterGlo, read-out: Cell growth inhibition activity, HER2 WT.
Setting [2] is: 3-day treatment, CellTiterGlo, read-out: Cell growth inhibition activity, HER2 - YVMA.
Where [3] appears, read: 3-day treatment, CellTiterGlo, read-out: Cell growth inhibition activity, EGFR WT.
[4] abbreviates: cell growth inhibition, 80 ng/mL EGF, 3 days treatment, read-out: EGFR WT IC50.

Chain of BaF3_HER2YVMA cells (P04626 with tags, fused parts or gaps DUP772-775): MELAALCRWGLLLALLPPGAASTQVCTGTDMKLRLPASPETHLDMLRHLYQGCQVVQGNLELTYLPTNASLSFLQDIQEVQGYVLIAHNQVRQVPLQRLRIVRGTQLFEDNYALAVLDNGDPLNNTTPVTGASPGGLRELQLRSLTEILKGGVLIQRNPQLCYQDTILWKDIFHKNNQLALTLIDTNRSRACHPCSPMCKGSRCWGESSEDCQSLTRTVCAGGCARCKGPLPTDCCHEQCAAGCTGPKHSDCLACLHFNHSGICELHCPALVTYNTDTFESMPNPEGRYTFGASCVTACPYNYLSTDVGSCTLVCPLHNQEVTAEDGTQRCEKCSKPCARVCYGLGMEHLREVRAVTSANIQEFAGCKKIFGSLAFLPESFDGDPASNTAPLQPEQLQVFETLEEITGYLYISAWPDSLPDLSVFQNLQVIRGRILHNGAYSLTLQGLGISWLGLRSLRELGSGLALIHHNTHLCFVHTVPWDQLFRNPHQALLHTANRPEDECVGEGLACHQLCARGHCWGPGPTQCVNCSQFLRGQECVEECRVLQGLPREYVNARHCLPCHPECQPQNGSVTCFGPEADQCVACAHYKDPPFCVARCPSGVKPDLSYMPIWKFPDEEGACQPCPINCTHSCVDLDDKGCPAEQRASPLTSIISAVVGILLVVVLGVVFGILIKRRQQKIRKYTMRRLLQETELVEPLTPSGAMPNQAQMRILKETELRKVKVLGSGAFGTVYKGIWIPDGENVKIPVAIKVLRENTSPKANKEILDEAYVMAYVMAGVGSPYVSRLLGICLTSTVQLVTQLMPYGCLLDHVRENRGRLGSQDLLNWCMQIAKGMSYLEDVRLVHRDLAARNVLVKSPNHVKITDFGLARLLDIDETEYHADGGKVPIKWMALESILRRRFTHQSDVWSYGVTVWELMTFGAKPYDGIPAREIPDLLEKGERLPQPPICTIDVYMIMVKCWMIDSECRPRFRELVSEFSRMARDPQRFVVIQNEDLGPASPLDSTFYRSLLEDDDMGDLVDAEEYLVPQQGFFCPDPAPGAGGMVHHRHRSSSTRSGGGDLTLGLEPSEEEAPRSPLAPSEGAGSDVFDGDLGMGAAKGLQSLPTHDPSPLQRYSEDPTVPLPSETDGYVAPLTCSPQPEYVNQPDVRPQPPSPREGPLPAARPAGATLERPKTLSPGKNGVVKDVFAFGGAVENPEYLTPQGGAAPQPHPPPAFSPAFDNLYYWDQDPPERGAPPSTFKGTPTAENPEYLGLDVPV
Chain of BaF3_EGFRWT cells (P00533 whole entry, change not shown): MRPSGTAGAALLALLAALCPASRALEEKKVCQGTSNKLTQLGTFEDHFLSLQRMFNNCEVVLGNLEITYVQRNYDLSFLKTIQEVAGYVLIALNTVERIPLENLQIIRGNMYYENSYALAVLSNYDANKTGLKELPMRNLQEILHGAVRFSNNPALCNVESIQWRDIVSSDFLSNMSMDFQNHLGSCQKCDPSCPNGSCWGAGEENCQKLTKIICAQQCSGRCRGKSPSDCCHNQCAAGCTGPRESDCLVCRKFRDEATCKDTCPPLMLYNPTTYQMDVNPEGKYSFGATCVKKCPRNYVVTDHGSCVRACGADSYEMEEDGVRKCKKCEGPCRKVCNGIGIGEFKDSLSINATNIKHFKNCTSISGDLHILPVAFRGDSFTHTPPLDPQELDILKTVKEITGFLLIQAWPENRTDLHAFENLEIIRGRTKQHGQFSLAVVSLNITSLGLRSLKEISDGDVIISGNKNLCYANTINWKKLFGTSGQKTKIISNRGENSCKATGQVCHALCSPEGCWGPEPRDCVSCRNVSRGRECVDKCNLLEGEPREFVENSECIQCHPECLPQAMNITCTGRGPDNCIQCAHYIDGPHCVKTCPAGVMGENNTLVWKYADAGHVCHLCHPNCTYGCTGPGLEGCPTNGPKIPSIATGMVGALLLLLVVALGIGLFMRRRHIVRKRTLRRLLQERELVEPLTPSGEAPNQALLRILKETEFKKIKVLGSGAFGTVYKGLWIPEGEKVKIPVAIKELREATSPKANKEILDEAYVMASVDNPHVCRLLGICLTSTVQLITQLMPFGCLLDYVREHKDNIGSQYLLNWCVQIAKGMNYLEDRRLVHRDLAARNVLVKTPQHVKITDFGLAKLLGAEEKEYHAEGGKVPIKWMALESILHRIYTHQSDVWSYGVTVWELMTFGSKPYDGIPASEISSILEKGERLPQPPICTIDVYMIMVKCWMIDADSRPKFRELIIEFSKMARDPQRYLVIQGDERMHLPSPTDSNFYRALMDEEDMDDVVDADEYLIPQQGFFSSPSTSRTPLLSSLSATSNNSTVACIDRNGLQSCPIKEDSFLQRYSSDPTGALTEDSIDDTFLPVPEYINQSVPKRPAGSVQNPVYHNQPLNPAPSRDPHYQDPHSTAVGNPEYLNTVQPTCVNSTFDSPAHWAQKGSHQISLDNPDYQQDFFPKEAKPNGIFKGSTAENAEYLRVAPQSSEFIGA
Chain of BaF3_HER2WT cells (P04626 whole entry, change not shown): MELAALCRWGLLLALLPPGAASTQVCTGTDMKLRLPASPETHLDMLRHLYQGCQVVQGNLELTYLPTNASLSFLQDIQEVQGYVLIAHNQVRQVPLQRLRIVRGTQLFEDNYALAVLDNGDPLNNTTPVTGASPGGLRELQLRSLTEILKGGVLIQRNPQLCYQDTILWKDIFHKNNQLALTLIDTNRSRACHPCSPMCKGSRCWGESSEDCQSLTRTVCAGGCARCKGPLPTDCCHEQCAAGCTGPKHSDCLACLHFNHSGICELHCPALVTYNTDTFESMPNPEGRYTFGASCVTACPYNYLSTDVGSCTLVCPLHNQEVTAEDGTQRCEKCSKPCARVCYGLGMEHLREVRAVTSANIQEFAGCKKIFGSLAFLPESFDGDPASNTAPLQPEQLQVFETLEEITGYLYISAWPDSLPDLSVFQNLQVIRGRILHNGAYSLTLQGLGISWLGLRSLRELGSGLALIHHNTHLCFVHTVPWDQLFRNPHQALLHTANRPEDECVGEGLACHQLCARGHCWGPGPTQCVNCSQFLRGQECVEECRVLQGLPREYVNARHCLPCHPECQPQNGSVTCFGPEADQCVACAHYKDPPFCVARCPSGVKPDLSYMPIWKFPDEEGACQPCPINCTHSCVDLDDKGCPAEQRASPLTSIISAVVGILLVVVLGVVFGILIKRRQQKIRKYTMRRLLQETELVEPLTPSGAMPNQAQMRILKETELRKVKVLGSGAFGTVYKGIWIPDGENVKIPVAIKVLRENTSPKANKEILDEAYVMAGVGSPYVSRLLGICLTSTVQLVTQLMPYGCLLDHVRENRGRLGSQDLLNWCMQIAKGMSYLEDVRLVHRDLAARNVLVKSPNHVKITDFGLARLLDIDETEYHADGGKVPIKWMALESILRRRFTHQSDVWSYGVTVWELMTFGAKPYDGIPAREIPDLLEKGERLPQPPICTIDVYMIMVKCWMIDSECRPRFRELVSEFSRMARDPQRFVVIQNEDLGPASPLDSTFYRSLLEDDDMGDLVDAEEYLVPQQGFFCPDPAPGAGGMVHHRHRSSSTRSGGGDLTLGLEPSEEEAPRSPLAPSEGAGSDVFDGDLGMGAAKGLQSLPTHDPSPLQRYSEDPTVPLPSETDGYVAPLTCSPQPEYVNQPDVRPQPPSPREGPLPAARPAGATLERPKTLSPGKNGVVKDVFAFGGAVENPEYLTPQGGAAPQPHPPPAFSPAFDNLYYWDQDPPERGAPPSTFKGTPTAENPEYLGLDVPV

For `Cc1cc(Nc2ncnn3ccc(C4CN(C(=O)/C=C/CC(C)C)C4)c23)ccc1Oc1ccn2ncnc2c1` [Example 43, (E)-1-(3-(4-((4-([1,2,4]triazolo[1,5-a]pyridin-7-yloxy)-3-methylphenyl)amino)pyrrolo[2,1-f][1,2,4]triazin-5-yl)azetidin-1-yl)-5-methylhex-2-en-1-one], the GI50 is under 0.2 µM on BaF3_HER2WT cells (setting [1]), 0.2 to 0.5 µM at BaF3_HER2YVMA cells (setting [2]) and 1.5 to 5 µM at BaF3_EGFRWT cells (setting [3]).

Consider `Cc1cc(Nc2ncnn3ccc(C4CN(C(=O)/C=C/CN5CCC(F)CC5)C4)c23)ccc1Oc1ccn2ncnc2c1` [Example 62, (E)-1-(3-(4-((4-([1,2,4]triazolo[1,5-a]pyridin-7-yloxy)-3-methylphenyl)amino)pyrrolo[2,1-f][1,2,4]triazin-5-yl)azetidin-1-yl)-4-(4-fluoropiperidin-1-yl)but-2-en-1-one], for which the GI50 at BaF3_HER2WT cells (setting [1]) is under 0.2 µM; at BaF3_HER2YVMA cells (setting [2]), under 0.2 µM; at BaF3_EGFRWT cells (setting [3]), 1.5 to 5 µM.

For the compound `Cc1cc(Nc2ncnn3ccc(N4CC(NC(=O)/C=C/CN5CCOCC5)C4)c23)ccc1Oc1ccn2ncnc2c1` [Example 81, (E)-N-(1-(4-((4-([1,2,4]triazolo[1,5-a]pyridin-7-yloxy)-3-methylphenyl)amino)pyrrolo[2,1-f][1,2,4]triazin-5-yl)azetidin-3-yl)-4-morpholinobut-2-enamide], the GI50 on BaF3_HER2WT cells (setting [1]) was 0.2 to 0.5 µM; at BaF3_HER2YVMA cells (setting [2]), 1.5 to 5 µM; at BaF3_EGFRWT cells (setting [3]), 1.5 to 5 µM.

In the case of `Cc1cc(Nc2ncnn3ccc(C4CCCN(C(=O)/C=C/CN(C)C)C4)c23)ccc1Oc1ccn2ncnc2c1` (single isomer, unassigned) [Examples 107 and 108, second eluting isomer, (E)-1-(3-(4-((4-([1,2,4]triazolo[1,5-a]pyridin-7-yloxy)-3-methylphenyl)amino)pyrrolo[2,1-f][1,2,4]triazin-5-yl)piperidin-1-yl)-4-(dimethylamino)but-2-en-1-one], the GI50 was 0.5 to 1.5 µM on BaF3_HER2WT cells (cell growth inhibition, 3 days treatment, read-out: HER2 WT IC50); 1.5 to 5 µM on BaF3_HER2YVMA cells (cell growth inhibition, 3 days treatment, read-out: HER2 - YVMA IC50); 1.5 to 5 µM at BaF3_EGFRWT cells (setting [4]).

Consider `COC/C=C/C(=O)N1CC(c2ccn3ncnc(Nc4ccc(Oc5ccn6ncnc6c5)c(C)c4)c23)C1` [Example 40, (E)-1-(3-(4-((4-([1,2,4]triazolo[1,5-a]pyridin-7-yloxy)-3-methylphenyl)amino)pyrrolo[2,1-f][1,2,4]triazin-5-yl)azetidin-1-yl)-4-methoxybut-2-en-1-one], for which the GI50 was in the range of 0.2 to 0.5 µM on BaF3_HER2WT cells (setting [1]), 0.2 to 0.5 µM at BaF3_HER2YVMA cells (setting [2]) and 1.5 to 5 µM at BaF3_EGFRWT cells (setting [3]).

For `Cc1cc(Nc2ncnn3ccc(N4CCC(N(C)C(=O)/C=C/CN(C)C)C4)c23)ccc1Oc1ccn2ncnc2c1` (stereo not shown) [Example 70, (E)-N-(1-(4-((4-([1,2,4]triazolo[1,5-a]pyridin-7-yloxy)-3-methylphenyl)amino)pyrrolo[2,1-f][1,2,4]triazin-5-yl)pyrrolidin-3-yl)-4-(dimethylamino)-N-methylbut-2-enamide], the GI50 at BaF3_HER2WT cells (setting [1]) is under 0.2 µM; on BaF3_HER2YVMA cells (setting [2]), under 0.2 µM; at BaF3_EGFRWT cells (setting [3]), 1.5 to 5 µM.

`Cc1cc(Nc2ncnn3ccc(C4CN(C(=O)/C=C/C5CCCN5C)C4)c23)ccc1Oc1ccn2ncnc2c1` (stereo not shown) [Example 66, (E)-1-(3-(4-((4-([1,2,4]triazolo[1,5-a]pyridin-7-yloxy)-3-methylphenyl)amino)pyrrolo[2,1-f][1,2,4]triazin-5-yl)azetidin-1-yl)-3-(1-methylpyrrolidin-2-yl)prop-2-en-1-one]: the figures for the GI50 on BaF3_HER2WT cells (setting [1]), on BaF3_HER2YVMA cells (setting [2]) and on BaF3_EGFRWT cells (setting [3]) were under 0.2 µM, under 0.2 µM and 1.5 to 5 µM, respectively.

With `CO[C@@H]1CN(C/C=C/C(=O)N2CCC(c3ccn4ncnc(Nc5ccc(Oc6ccc7c(c6)ncn7C)c(C)c5)c34)CC2)C[C@H]1OC` [Example 168, (E)-4-((3R,4R)-3,4-dimethoxypyrrolidin-1-yl)-1-(4-(4-((3-methyl-4-((1-methyl-1H-benzo[d]imidazol-5-yl)oxy)phenyl)amino)pyrrolo[2,1-f][1,2,4]triazin-5-yl)piperidin-1-yl)but-2-en-1-one], the GI50 at BaF3_HER2WT cells (setting [1]) was under 0.2 µM; at BaF3_HER2YVMA cells (setting [2]) it was under 0.2 µM; on BaF3_EGFRWT cells (setting [3]), 1.5 to 5 µM.

On to `CO[C@H]1CN(C/C=C/C(=O)N2CC(c3ccn4ncnc(Nc5ccc(Oc6ccc7c(c6)ncn7C)c(C)c5)c34)C2)C[C@H]1OC` [Example 165, (E)-4-((3R,4S)-3,4-dimethoxypyrrolidin-1-yl)-1-(3-(4-((3-methyl-4-((1-methyl-1H-benzo[d]imidazol-5-yl)oxy)phenyl)amino)pyrrolo[2,1-f][1,2,4]triazin-5-yl)azetidin-1-yl)but-2-en-1-one], for which the GI50 was under 0.2 µM at BaF3_HER2WT cells (setting [1]), under 0.2 µM on BaF3_HER2YVMA cells (setting [2]) and 1.5 to 5 µM on BaF3_EGFRWT cells (setting [3]).

On to `CO[C@@H]1CN(C/C=C/C(=O)N2CCC(c3ccn4ncnc(Nc5ccc(Oc6ccn7ncnc7c6)c(C)c5)c34)CC2)C[C@H]1OC` [Example 170, (E)-1-(4-(4-((4-([1,2,4]triazolo[1,5-a]pyridin-7-yloxy)-3-methylphenyl)amino)pyrrolo[2,1-f][1,2,4]triazin-5-yl)piperidin-1-yl)-4-((3R,4R)-3,4-dimethoxypyrrolidin-1-yl)but-2-en-1-one], for which the GI50 at BaF3_HER2WT cells (setting [1]) was under 0.2 µM; on BaF3_HER2YVMA cells (setting [2]) it was under 0.2 µM; on BaF3_EGFRWT cells (setting [3]) it was 1.5 to 5 µM.

On to `Cc1cc(Nc2ncnn3ccc(C4CN(C(=O)/C=C/CN(C)C)C4)c23)ccc1Oc1cc2ncnn2cn1` [Example 158, (E)-1-(3-(4-((4-([1,2,4]triazolo[1,5-c]pyrimidin-7-yloxy)-3-methylphenyl)amino)pyrrolo[2,1-f][1,2,4]triazin-5-yl)azetidin-1-yl)-4-(dimethylamino)but-2-en-1-one], for which the GI50 at BaF3_HER2WT cells (setting [1]) is under 0.2 µM; at BaF3_HER2YVMA cells (setting [2]) it was under 0.2 µM; on BaF3_EGFRWT cells (setting [3]), 0.5 to 1.5 µM.

`CO[C@@H]1CN(C/C=C/C(=O)N2CC(c3ccn4ncnc(Nc5ccc(Oc6ccc7c(c6)ncn7C)c(C)c5)c34)C2)C[C@H]1OC` [Example 166, (E)-4-((3R,4R)-3,4-dimethoxypyrrolidin-1-yl)-1-(3-(4-((3-methyl-4-((1-methyl-1H-benzo[d]imidazol-5-yl)oxy)phenyl)amino)pyrrolo[2,1-f][1,2,4]triazin-5-yl)azetidin-1-yl)but-2-en-1-one]: the GI50 at BaF3_HER2WT cells (setting [1]) was under 0.2 µM; on BaF3_HER2YVMA cells (setting [2]), under 0.2 µM; on BaF3_EGFRWT cells (setting [3]), 1.5 to 5 µM.

`Cc1cc(Nc2ncnn3ccc(C4=CCN(C(=O)/C=C/CN(C)C)CC4)c23)ccc1Oc1ccn2ncnc2c1` [Example 53, (E)-1-(4-(4-((4-([1,2,4]triazolo[1,5-a]pyridin-7-yloxy)-3-methylphenyl)amino)pyrrolo[2,1-f][1,2,4]triazin-5-yl)-3,6-dihydropyridin-1(2H)-yl)-4-(dimethylamino)but-2-en-1-one]: the GI50 at BaF3_HER2WT cells (setting [1]) is under 0.2 µM; on BaF3_HER2YVMA cells (setting [2]), under 0.2 µM; on BaF3_EGFRWT cells (setting [3]), 1.5 to 5 µM.

Regarding `Cc1cc(Nc2ncnn3ccc(C4CCN(C(=O)/C=C/C(=O)O)CC4)c23)ccc1Oc1ccn2ncnc2c1` [Example 142, (E)-4-(4-(4-((4-([1,2,4]triazolo[1,5-a]pyridin-7-yloxy)-3-methylphenyl)amino)pyrrolo[2,1-f][1,2,4]triazin-5-yl)piperidin-1-yl)-4-oxobut-2-enoic acid], the GI50 on BaF3_HER2WT cells (setting [1]), at BaF3_HER2YVMA cells (setting [2]) and on BaF3_EGFRWT cells (setting [3]) was 1.5 to 5 µM throughout.

Consider `COC1CN(C/C=C/C(=O)N2CC(c3ccn4ncnc(Nc5ccc(Oc6ccn7ncnc7c6)c(C)c5)c34)C2)C1` [Example 39, (E)-1-(3-(4-((4-([1,2,4]triazolo[1,5-a]pyridin-7-yloxy)-3-methylphenyl)amino)pyrrolo[2,1-f][1,2,4]triazin-5-yl)azetidin-1-yl)-4-(3-methoxyazetidin-1-yl)but-2-en-1-one], for which the results for the GI50 on BaF3_HER2WT cells (setting [1]) and at BaF3_EGFRWT cells (setting [3]) were under 0.2 µM and 1.5 to 5 µM, respectively.

For the compound `Cc1cc(Nc2ncnn3ccc(C(=O)NCCCN(C)C)c23)ccc1Oc1ccn2ncnc2c1` [Example 179, 4-((4-([1,2,4]triazolo[1,5-a]pyridin-7-yloxy)-3-methylphenyl)amino)-N-(3-(dimethylamino)-propyl)pyrrolo[2,1-f][1,2,4]triazine-5-carboxamide hydrochloride], the GI50 was 0.2 to 0.5 µM on BaF3_HER2WT cells (setting [1]) and over 5 µM at BaF3_EGFRWT cells (setting [3]).

Take `C=CC(=O)N1CCCC(c2ccn3ncnc(Nc4ccc(Oc5ccn6ncnc6c5)c(C)c4)c23)CC1` (single isomer, unassigned) [Examples 111 and 112, second eluting isomer, 1-(4-(4-((4-([1,2,4]triazolo[1,5-a]pyridin-7-yloxy)-3-methylphenyl)amino)pyrrolo-[2,1-f][1,2,4]triazin-5-yl)azepan-1-yl)prop-2-en-1-one]: the GI50 on BaF3_EGFRWT cells (setting [4]) lay within 1.5 to 5 µM.

On to `COC1CCN(C/C=C/C(=O)N2CCC(c3ccn4ncnc(Nc5ccc(Oc6ccc7c(c6)ncn7C)c(C)c5)c34)CC2)C1` (racemic) [Example 106, (E)-4-(3-methoxypyrrolidin-1-yl)-1-(4-(4-((3-methyl-4-((1-methyl-1H-benzo[d]imidazol-5-yl)oxy)phenyl)amino)pyrrolo[2,1-f][1,2,4]triazin-5-yl)piperidin-1-yl)but-2-en-1-one], for which, on BaF3_EGFRWT cells (setting [3]), the GI50 is 1.5 to 5 µM.

`Cc1cc(Nc2ncnn3ccc(C4CCN(C(=O)/C=C/CN(C)C)CC4)c23)ccc1Oc1ccn2ncnc2c1` [Example 21, (E)-1-(4-(4-((4-([1,2,4]triazolo[1,5-a]pyridin-7-yloxy)-3-methylphenyl)amino)pyrrolo[2,1-f][1,2,4]triazin-5-yl)piperidin-1-yl)-4-(dimethylamino)but-2-en-1-one]: the GI50 at BaF3_EGFRWT cells (setting [3]) is 1.5 to 5 µM.
